# Read-outs that look alike come from different tables or passages of the source.
# Experiments:
# Experiment in all cases: Antibacterial activity (MIC), standard method of the Japanese Society of Chemotherapy
# Assay type in all cases: cell-based
# E. cloacae 03400 = conditions: Enterobacter cloacae
# Experimental: (§1) Antibacterial activity of the compounds of the present invention was measured in accordance with the standard method specified by the Japanese Society of Chemotherapy.
# E. coli NIHJ = conditions: Escherichia coli
# Experimental: as §1
# E. faecalis 19433 = conditions: Enterococcus faecalis
# Experimental: as §1
# H. influenzae ATCC49247 = conditions: Haemophilus influenzae
# Experimental: as §1
# K. pneumoniae TYPE 1 = conditions: Klebsiella pneumoniae, TYPE1
# Experimental: as §1
# [1] = tested on: M(B). Caterrhalis ATCC25238
# Experimental: as §1
# P. aeruginosa PAO1 = conditions: Pseudomonas aeruginosa
# Experimental: as §1
# P. mirabilis 08103 = conditions: Proteus mirabilis
# Experimental: as §1
# S. aureus 870307 = conditions: Staphylococcus aureus
# Experimental: as §1
# S. aureus FDA 209-P = conditions: Staphylococcus aureus, FDA209
# Experimental: as §1
# S. epidermidis 56500 = conditions: Staphylococcus epidermidis
# Experimental: as §1
# S. marcescens 10100 = conditions: Serratia marcescens
# Experimental: as §1
# S. pneumoniae 104835 = conditions: Streptococcus pneumoniae
# Experimental: as §1
# S. pneumoniae J24 = conditions: Streptococcus pneumoniae
# Experimental: as §1
# [2] = tested on: S. pyogenes JCM5674(ATCC12344); conditions: Streptococcus pyogenes
# Experimental: as §1
# [3] = ATCC 25238 / ATCC 49247, H. influenzae ATCC25238 as printed (second half of Table 2), read-out: MIC, H. influenzae ATCC25238
# [4] = M(B). Caterrhalis [sic] ATCC49247 (Table 2), read-out: MIC, M(B). Caterrhalis ATCC49247
# [5] = H. influenzae ATCC49247 (first half of Table 2), read-out: MIC, H. influenzae ATCC49247
# [6] = M(B). Caterrhalis ATCC25238 (first half of Table 2), read-out: MIC, M(B). Caterrhalis ATCC25238
SMILES,MIC (E. cloacae 03400),MIC (E. coli NIHJ),MIC (E. faecalis 19433),MIC (H. influenzae ATCC49247; [3]),MIC (K. pneumoniae TYPE 1),"MIC [1, 4]",MIC (P. aeruginosa PAO1),MIC (P. mirabilis 08103),MIC (S. aureus 870307),MIC (S. aureus FDA 209-P),MIC (S. epidermidis 56500),MIC (S. marcescens 10100),MIC (S. pneumoniae 104835),MIC (S. pneumoniae J24),MIC [2],MIC (H. influenzae ATCC49247; [5]),"MIC [1, 6]"
"COc1c(N2C[C@H]3[C@@H](C)C[C@@]3(N)C2)c(F)cc2c(=O)c(C(=O)O)cn([C@@H]3C[C@@H]3F)c12 [Example 2, 7-{(1S,5R,6S)-1-Amino-6-methyl-3-azabicyclo[3.2.0]hept-3-yl}-6-fluoro-1-[(1R,2S)-2-fluorocyclopropyl]-1,4-dihydro-8-methoxy-4-oxoquinoline-3-carboxylic acid]",0.025 µg/mL,0.025 µg/mL,0.05 µg/mL,–,0.1 µg/mL,–,0.78 µg/mL,0.012 µg/mL,0.1 µg/mL,≤ 0.003 µg/mL,0.012 µg/mL,0.2 µg/mL,0.1 µg/mL,0.012 µg/mL,0.025 µg/mL,0.006 µg/mL,0.025 µg/mL
"COc1c(N2C[C@@H]3CCCN[C@@H]3C2)c(F)cc2c(=O)c(C(=O)O)cn(C3CC3)c12 [MXFX, moxifloxacin, reference compound]",–,–,0.2 µg/mL,–,0.1 µg/mL,–,0.78 µg/mL,0.025 µg/mL,0.78 µg/mL,0.05 µg/mL,0.1 µg/mL,0.2 µg/mL,3.13 µg/mL,0.1 µg/mL,0.2 µg/mL,–,–
"O=C(O)c1cn(C2CC2)c2cc(N3CCNCC3)c(F)cc2c1=O [CPFX, ciprofloxacin, reference compound]",–,≤ 0.003 µg/mL,0.78 µg/mL,–,–,–,0.05 µg/mL,0.012 µg/mL,> 6.25 µg/mL,0.1 µg/mL,0.2 µg/mL,–,> 6.25 µg/mL,0.78 µg/mL,0.39 µg/mL,–,–
"COc1c(N2C[C@@H]3CC=CC[C@@]3(N)C2)c(F)cc2c(=O)c(C(=O)O)cn([C@@H]3C[C@@H]3F)c12 [Example 35, 7-[(1S,6S)-1-Amino-8-azabicyclo[4.3.0]non-3-en-8-yl]-6-fluoro-1-[(1R,2S)-2-fluorocyclopropyl]-1,4-dihydro-8-methoxy-4-oxoquinoline-3-carboxylic acid]",0.012 µg/mL,0.006 µg/mL,0.2 µg/mL,0.012 µg/mL,0.05 µg/mL,0.025 µg/mL,0.39 µg/mL,0.025 µg/mL,0.2 µg/mL,0.025 µg/mL,0.05 µg/mL,0.1 µg/mL,0.39 µg/mL,0.05 µg/mL,0.05 µg/mL,–,–
"COc1c(N2C[C@H]3[C@H](C)C[C@@]3(N)C2)c(F)cc2c(=O)c(C(=O)O)cn([C@@H]3C[C@@H]3F)c12 [Example 5, 7-{(1S,5R,6R)-1-Amino-6-methyl-3-azabicyclo[3.2.0]hept-3-yl}-6-fluoro-1-[(1R,2S)-2-fluorocyclopropyl]-1,4-dihydro-8-methoxy-4-oxoquinoline-3-carboxylic acid]",0.025 µg/mL,0.025 µg/mL,0.1 µg/mL,–,0.1 µg/mL,–,0.78 µg/mL,0.025 µg/mL,0.2 µg/mL,0.006 µg/mL,0.025 µg/mL,0.2 µg/mL,0.2 µg/mL,0.025 µg/mL,0.05 µg/mL,0.012 µg/mL,0.05 µg/mL

# Continued by falling MIC (E. faecalis 19433), values first:
MIC (E. cloacae 03400),MIC (E. coli NIHJ),MIC (E. faecalis 19433),MIC (H. influenzae ATCC49247; [3]),MIC (K. pneumoniae TYPE 1),"MIC [1, 4]",MIC (P. aeruginosa PAO1),MIC (P. mirabilis 08103),MIC (S. aureus 870307),MIC (S. aureus FDA 209-P),MIC (S. epidermidis 56500),MIC (S. marcescens 10100),MIC (S. pneumoniae 104835),MIC (S. pneumoniae J24),MIC [2],MIC (H. influenzae ATCC49247; [5]),"MIC [1, 6]",SMILES
0.012 µg/mL,0.012 µg/mL,0.78 µg/mL,0.012 µg/mL,0.05 µg/mL,0.025 µg/mL,0.39 µg/mL,0.025 µg/mL,6.25 µg/mL,0.1 µg/mL,0.39 µg/mL,0.05 µg/mL,> 6.25 µg/mL,0.78 µg/mL,0.39 µg/mL,–,–,"C[C@H]1COc2c(N3CCN(C)CC3)c(F)cc3c(=O)c(C(=O)O)cn1c23 [LVFX, levofloxacin, reference compound]"
0.006 µg/mL,0.006 µg/mL,0.1 µg/mL,0.006 µg/mL,0.025 µg/mL,0.012 µg/mL,0.2 µg/mL,0.012 µg/mL,0.39 µg/mL,0.025 µg/mL,0.05 µg/mL,0.05 µg/mL,0.39 µg/mL,0.1 µg/mL,0.05 µg/mL,–,–,"C[C@H]1COc2c(N3C[C@@H]4CCCC[C@@]4(N)C3)c(F)cc3c(=O)c(C(=O)O)cn1c23 [Example 34, 10-[(1S,6S)-1-Amino-8-azabicyclo[4.3.0]nonan-8-yl]-9-fluoro-2,3-dihydro-3-(S)-methyl-7-oxo-7H-pyrido[1,2,3-de][1,4]benzoxazine-6-carboxylic acid]"
